# Source: PubChem BioAssay (NCI)
#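 Where inhibition never reached the appropriate level, the endpoint shown equals the highest concentration tested. Otherwise, values were interpolated linearly from a five-concentration, 48-hour dose response in 96-well plates. GI50: concentration for 50% inhibition of growth. TGI is the concentration that stops growth completely.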
# Key:
# Assay in all cases: growth of human tumour cells (NCI), 48 h
# [1] = test system: HOP-62 NSCLC
# [2] = test system: SR leukemia
# [3] = test system: SK-MEL-5 melanoma
# [4] = test system: UACC-257 melanoma
# [5] = test system: MDA-MB-435
# [6] = test system: MDA-MB-231 breast
# [7] = test system: MCF7 breast
# [8] = test system: HOP-92 NSCLC
# [9] = test system: HCT-15 colon
# [10] = test system: A549 NSCLC
# [11] = test system: SW-620 colon
# [12] = test system: TK-10 renal
# [13] = test system: HL-60(TB) leukemia
# [14] = test system: SN12C renal
# [15] = test system: CCRF-CEM leukemia
# [16] = test system: KM12 colon
# [17] = test system: SF-268 CNS
# [18] = test system: UO-31 renal
# [19] = test system: SK-MEL-28 melanoma
# [20] = test system: MALME-3M melanoma
# [21] = test system: SF-539 CNS
# [22] = test system: SK-OV-3 ovarian
# [23] = test system: HCT-116 colon
# [24] = test system: OVCAR-8 ovarian
# [25] = test system: RXF 393 renal
# [26] = test system: BT-549 breast
# [27] = test system: MOLT-4 leukemia
# [28] = test system: IGROV1 ovarian
# [29] = test system: EKVX NSCLC
# [30] = test system: NCI-H23 lung
# [31] = test system: UACC-62 melanoma
# [32] = test system: DU-145 prostate
# [33] = test system: NCI-H226 lung
# [34] = test system: NCI-H460 lung
# [35] = test system: SF-295 CNS
# [36] = test system: 786-0 renal
# [37] = test system: SNB-19 CNS
# [38] = test system: HCC-2998 colon
# [39] = test system: SNB-75 CNS
# [40] = test system: M14 melanoma
# [41] = test system: PC-3 prostate
# [42] = test system: ACHN renal
# [43] = test system: HT29 colon
# [44] = test system: HS 578T breast
# [45] = test system: K-562 leukemia
# [46] = test system: RPMI-8226 leukemia
# [47] = test system: NCI-H522 lung
# [48] = test system: CAKI-1 renal
# [49] = test system: COLO 205 colon
# [50] = test system: A498 renal
# [51] = test system: OVCAR-3 ovarian
# [52] = test system: SK-MEL-2 melanoma
# [53] = test system: U251 CNS
# [54] = test system: T-47D breast
# [55] = test system: OVCAR-4 ovarian
# [56] = test system: OVCAR-5 ovarian
# [57] = test system: NCI/ADR-RES ovarian
# [58] = test system: LOX IMVI melanoma
smiles,measurement,setting,value
O=[N+]([O-])c1ccc(Sc2ncccn2)c([N+](=O)[O-])c1,GI50,[1],15.1 µM
same,TGI,[1],30.1 µM
same,GI50,[2],1.2 µM
same,TGI,[2],17.9 µM
same,GI50,[3],10.4 µM
same,TGI,[3],22.4 µM
same,GI50,[4],5.33 µM
same,TGI,[4],19.1 µM
same,GI50,[5],3.16 µM
same,TGI,[5],13.3 µM
same,GI50,[6],5.31 µM
same,TGI,[6],17.1 µM
same,GI50,[7],3.68 µM
same,TGI,[7],17.7 µM
same,GI50,[8],1.15 µM
same,TGI,[8],3.94 µM
same,GI50,[9],2.67 µM
same,TGI,[9],11.1 µM
same,GI50,[10],3.95 µM
same,TGI,[10],14.2 µM
same,GI50,[11],2.9 µM
same,TGI,[11],8.05 µM
same,GI50,[12],2.57 µM
same,TGI,[12],5.77 µM
same,GI50,[13],2.37 µM
same,TGI,[13],15.8 µM
same,GI50,[14],3.46 µM
same,TGI,[14],13.9 µM
same,GI50,[15],2.04 µM
same,TGI,[15],5.5 µM
same,GI50,[16],4.36 µM
same,TGI,[16],15.9 µM
same,GI50,[17],5.08 µM
same,TGI,[17],19.6 µM
same,GI50,[18],1.93 µM
same,TGI,[18],7.36 µM
same,GI50,[19],3.89 µM
same,TGI,[19],13.5 µM
same,GI50,[20],1.75 µM
same,TGI,[20],4.72 µM
same,GI50,[21],2.63 µM
same,TGI,[21],8.82 µM
same,GI50,[22],12.5 µM
same,TGI,[22],25.2 µM
same,GI50,[23],3.43 µM
same,TGI,[23],11.8 µM
same,GI50,[24],4.33 µM
same,TGI,[24],14 µM
same,GI50,[25],0.0489 µM
same,TGI,[25],3.23 µM
same,GI50,[26],1.27 µM
same,TGI,[26],4.19 µM
same,GI50,[27],2.32 µM
same,TGI,[27],25.4 µM
same,GI50,[28],1.27 µM
same,TGI,[28],13.6 µM
same,GI50,[29],3.96 µM
same,TGI,[29],18.7 µM
same,GI50,[30],5.28 µM
same,TGI,[30],19.1 µM
same,GI50,[31],4.31 µM
same,TGI,[31],16.2 µM
same,GI50,[32],3.71 µM
same,TGI,[32],12.7 µM
same,GI50,[33],4.28 µM
same,TGI,[33],18.2 µM
same,GI50,[34],6.78 µM
same,TGI,[34],24.1 µM
same,GI50,[35],5.93 µM
same,TGI,[35],20 µM
same,GI50,[36],4.59 µM
same,TGI,[36],16.1 µM
same,GI50,[37],10.8 µM
same,TGI,[37],23.1 µM
same,GI50,[38],13 µM
same,TGI,[38],26.5 µM
same,GI50,[39],4.51 µM
same,TGI,[39],17.6 µM
same,GI50,[40],5.26 µM
same,TGI,[40],18.4 µM
same,GI50,[41],2.13 µM
same,TGI,[41],15.1 µM
same,GI50,[42],3.41 µM
same,TGI,[42],11.1 µM
same,GI50,[43],3.39 µM
same,TGI,[43],12.9 µM
same,GI50,[44],3.83 µM
same,TGI,[44],18 µM
same,GI50,[45],2.52 µM
same,TGI,[45],12.1 µM
same,GI50,[46],1.89 µM
same,TGI,[46],5.4 µM
same,GI50,[47],1.64 µM
same,TGI,[47],3.11 µM
same,GI50,[48],1.36 µM
same,TGI,[48],3.59 µM
same,GI50,[49],3.11 µM
same,TGI,[49],10.8 µM
same,GI50,[50],7.6 µM
same,TGI,[50],20.7 µM
same,GI50,[51],3.38 µM
same,TGI,[51],10.3 µM
same,GI50,[52],7.15 µM
same,TGI,[52],21.5 µM
same,GI50,[53],4.46 µM
same,TGI,[53],15.3 µM
same,GI50,[54],3.01 µM
same,TGI,[54],15 µM
same,GI50,[55],2.96 µM
same,TGI,[55],13.5 µM
same,GI50,[56],7.35 µM
same,TGI,[56],19.8 µM
same,GI50,[57],6.55 µM
same,TGI,[57],20.1 µM
same,GI50,[58],4.3 µM
same,TGI,[58],15 µM
O=C(Nc1n[nH]c2nc(-c3ccco3)c(Br)cc12)C1CC1,GI50,[1],> 25 µM
same,TGI,[1],> 25 µM
same,GI50,[2],> 25 µM
same,TGI,[2],> 25 µM
same,GI50,[3],> 16.4 µM
same,TGI,[3],> 25 µM
same,GI50,[4],> 25 µM
same,TGI,[4],> 25 µM
same,GI50,[5],> 25 µM
same,TGI,[5],> 25 µM
same,GI50,[6],> 25 µM
same,TGI,[6],> 25 µM
same,GI50,[7],> 7.12 µM
same,TGI,[7],> 25 µM
same,GI50,[8],> 25 µM
same,TGI,[8],> 25 µM
same,GI50,[9],> 25 µM
same,TGI,[9],> 25 µM
same,GI50,[10],> 25 µM
same,TGI,[10],> 25 µM
same,GI50,[11],> 25 µM
same,TGI,[11],> 25 µM
same,GI50,[12],> 25 µM
same,TGI,[12],> 25 µM
same,GI50,[13],> 25 µM
same,TGI,[13],> 25 µM
same,GI50,[14],> 25 µM
same,TGI,[14],> 25 µM
same,GI50,[15],> 21.7 µM
same,TGI,[15],> 25 µM
same,GI50,[16],> 25 µM
same,TGI,[16],> 25 µM
same,GI50,[17],> 25 µM
same,TGI,[17],> 25 µM
same,GI50,[18],> 25 µM
same,TGI,[18],> 25 µM
same,GI50,[19],> 25 µM
same,TGI,[19],> 25 µM
same,GI50,[20],> 25 µM
same,TGI,[20],> 25 µM
same,GI50,[21],> 25 µM
same,TGI,[21],> 25 µM
same,GI50,[22],15.9 µM
same,TGI,[22],> 25 µM
same,GI50,[23],> 25 µM
same,TGI,[23],> 25 µM
same,GI50,[24],> 25 µM
same,TGI,[24],> 25 µM
same,GI50,[25],4.89 µM
same,TGI,[25],> 25 µM
same,GI50,[26],> 25 µM
same,TGI,[26],> 25 µM
same,GI50,[27],> 25 µM
same,TGI,[27],> 25 µM
same,GI50,[28],> 25 µM
same,TGI,[28],> 25 µM
same,GI50,[29],> 25 µM
same,TGI,[29],> 25 µM
same,GI50,[30],> 25 µM
same,TGI,[30],> 25 µM
same,GI50,[31],> 25 µM
same,TGI,[31],> 25 µM
same,GI50,[32],> 25 µM
same,TGI,[32],> 25 µM
same,GI50,[33],> 25 µM
same,TGI,[33],> 25 µM
same,GI50,[34],> 25 µM
same,TGI,[34],> 25 µM
same,GI50,[35],> 25 µM
same,TGI,[35],> 25 µM
same,GI50,[36],> 25 µM
same,TGI,[36],> 25 µM
same,GI50,[37],> 25 µM
same,TGI,[37],> 25 µM
same,GI50,[38],> 25 µM
same,TGI,[38],> 25 µM
same,GI50,[39],> 9.08 µM
same,TGI,[39],> 25 µM
same,GI50,[40],> 25 µM
same,TGI,[40],> 25 µM
same,GI50,[41],> 25 µM
same,TGI,[41],> 25 µM
same,GI50,[42],> 25 µM
same,TGI,[42],> 25 µM
same,GI50,[43],> 25 µM
same,TGI,[43],> 25 µM
same,GI50,[44],> 25 µM
same,TGI,[44],> 25 µM
same,GI50,[45],> 25 µM
same,TGI,[45],> 25 µM
same,GI50,[46],> 25 µM
same,TGI,[46],> 25 µM
same,GI50,[47],> 25 µM
same,TGI,[47],> 25 µM
same,GI50,[48],> 25 µM
same,TGI,[48],> 25 µM
same,GI50,[49],> 25 µM
same,TGI,[49],> 25 µM
same,GI50,[50],> 12.5 µM
same,TGI,[50],> 25 µM
same,GI50,[51],> 25 µM
same,TGI,[51],> 25 µM
same,GI50,[52],> 25 µM
same,TGI,[52],> 25 µM
same,GI50,[53],> 25 µM
same,TGI,[53],> 25 µM
same,GI50,[54],> 25 µM
same,TGI,[54],> 25 µM
same,GI50,[55],> 25 µM
same,TGI,[55],> 25 µM
same,GI50,[56],> 25 µM
same,TGI,[56],> 25 µM
same,GI50,[57],> 25 µM
same,TGI,[57],> 25 µM
same,GI50,[58],> 21.7 µM
same,TGI,[58],> 25 µM
